The target in experiment [1] is Calcium/calmodulin-dependent protein kinase type 1D (Homo sapiens) (UniProt Q8IU85).
Experiment [2] deals with T1, Serine/threonine-protein kinase PLK4 (Homo sapiens) (UniProt O00444).
T1 sequence (whole entry): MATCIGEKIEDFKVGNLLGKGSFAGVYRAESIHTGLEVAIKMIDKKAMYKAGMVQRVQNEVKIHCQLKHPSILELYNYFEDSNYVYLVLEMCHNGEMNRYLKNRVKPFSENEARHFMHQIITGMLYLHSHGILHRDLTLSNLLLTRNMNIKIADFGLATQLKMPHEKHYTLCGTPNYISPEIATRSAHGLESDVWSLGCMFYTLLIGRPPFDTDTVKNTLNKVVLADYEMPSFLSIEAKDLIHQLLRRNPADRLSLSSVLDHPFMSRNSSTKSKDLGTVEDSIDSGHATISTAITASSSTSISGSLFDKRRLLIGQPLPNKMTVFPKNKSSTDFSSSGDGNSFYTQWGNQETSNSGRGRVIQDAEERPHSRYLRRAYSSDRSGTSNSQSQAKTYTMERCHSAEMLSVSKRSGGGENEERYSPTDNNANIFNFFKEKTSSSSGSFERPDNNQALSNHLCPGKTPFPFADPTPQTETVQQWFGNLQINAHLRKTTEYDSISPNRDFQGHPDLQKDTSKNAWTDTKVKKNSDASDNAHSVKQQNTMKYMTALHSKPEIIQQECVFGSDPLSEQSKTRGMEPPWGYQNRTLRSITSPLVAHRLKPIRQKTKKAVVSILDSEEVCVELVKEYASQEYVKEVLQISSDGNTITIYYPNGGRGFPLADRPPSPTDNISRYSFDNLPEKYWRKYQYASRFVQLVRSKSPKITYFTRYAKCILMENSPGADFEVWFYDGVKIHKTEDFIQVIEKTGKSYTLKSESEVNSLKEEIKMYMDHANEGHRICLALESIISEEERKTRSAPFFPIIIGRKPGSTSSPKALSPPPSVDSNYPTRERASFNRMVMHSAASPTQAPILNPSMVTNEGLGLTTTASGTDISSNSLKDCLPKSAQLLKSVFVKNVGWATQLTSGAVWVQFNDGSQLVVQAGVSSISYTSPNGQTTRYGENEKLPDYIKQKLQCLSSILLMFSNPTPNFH

Experiment [3] has as its target Casein kinase I isoform gamma-3 (Homo sapiens) (UniProt Q9Y6M4).
The target in experiment [4] is T2, Lymphokine-activated killer T-cell-originated protein kinase (Homo sapiens) (UniProt Q96KB5).
T2 sequence (whole entry): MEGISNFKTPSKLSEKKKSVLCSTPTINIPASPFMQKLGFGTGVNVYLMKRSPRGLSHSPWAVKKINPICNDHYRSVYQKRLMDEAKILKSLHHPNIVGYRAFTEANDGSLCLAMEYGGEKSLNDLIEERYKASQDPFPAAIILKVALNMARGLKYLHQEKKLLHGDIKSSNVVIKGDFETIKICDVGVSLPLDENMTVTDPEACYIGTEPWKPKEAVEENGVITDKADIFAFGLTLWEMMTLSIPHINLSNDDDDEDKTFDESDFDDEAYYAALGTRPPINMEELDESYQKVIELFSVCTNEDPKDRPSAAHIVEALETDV

Experiment [5] addresses cAMP-dependent protein kinase catalytic subunit alpha (Homo sapiens) (UniProt P17612).
Experiment [6] deals with Dual specificity protein kinase CLK3 (Homo sapiens) (UniProt P49761).
Experiment [7] deals with Dual specificity mitogen-activated protein kinase kinase 2 (Homo sapiens, UniProt P36507).
Experiment [8] concerns the target STE20-like serine/threonine-protein kinase (Homo sapiens) (UniProt Q9H2G2).
Experiment [9] deals with Serine/threonine-protein kinase OSR1 (Homo sapiens) (UniProt O95747).
Experiment [10] has as its target Casein kinase I isoform gamma-2 (Homo sapiens) (UniProt P78368).
For experiment [11], the target named is Serine/threonine-protein kinase RIO2 (Homo sapiens) (UniProt Q9BVS4).
For experiment [12], the target named is T3, 3-phosphoinositide-dependent protein kinase 1 (Homo sapiens) (UniProt O15530).
T3 sequence (whole entry): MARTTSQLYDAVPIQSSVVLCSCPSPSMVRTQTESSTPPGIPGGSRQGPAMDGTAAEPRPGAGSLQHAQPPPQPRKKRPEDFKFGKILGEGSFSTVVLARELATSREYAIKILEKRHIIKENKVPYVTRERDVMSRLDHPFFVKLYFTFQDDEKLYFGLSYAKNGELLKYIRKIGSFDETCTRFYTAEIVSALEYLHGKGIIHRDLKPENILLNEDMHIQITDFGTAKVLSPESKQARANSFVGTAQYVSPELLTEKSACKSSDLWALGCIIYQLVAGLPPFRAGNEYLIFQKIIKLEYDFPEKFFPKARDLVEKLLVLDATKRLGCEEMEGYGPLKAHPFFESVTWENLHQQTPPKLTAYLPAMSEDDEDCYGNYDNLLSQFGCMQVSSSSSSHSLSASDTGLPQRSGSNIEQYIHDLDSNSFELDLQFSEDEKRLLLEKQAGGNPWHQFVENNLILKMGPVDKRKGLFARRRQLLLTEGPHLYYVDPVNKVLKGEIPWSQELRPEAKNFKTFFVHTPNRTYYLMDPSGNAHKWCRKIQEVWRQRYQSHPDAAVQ

Experiment [13] has as its target Serine/threonine-protein kinase pim-3 (Homo sapiens) (UniProt Q86V86).
Experiment [14] has as its target Dual specificity protein kinase CLK1 (Homo sapiens) (UniProt P49759).
Experiment [15] deals with Mitogen-activated protein kinase 6 (Homo sapiens) (UniProt Q16659).
For experiment [16], the target named is Cyclin-dependent kinase 16 (Homo sapiens) (UniProt Q00536).
The target of experiment [17] is Dual specificity protein kinase CLK2 (Homo sapiens) (UniProt P49760).
Sequence of Dual specificity protein kinase CLK2 (Homo sapiens) (P49760 whole entry, looked up): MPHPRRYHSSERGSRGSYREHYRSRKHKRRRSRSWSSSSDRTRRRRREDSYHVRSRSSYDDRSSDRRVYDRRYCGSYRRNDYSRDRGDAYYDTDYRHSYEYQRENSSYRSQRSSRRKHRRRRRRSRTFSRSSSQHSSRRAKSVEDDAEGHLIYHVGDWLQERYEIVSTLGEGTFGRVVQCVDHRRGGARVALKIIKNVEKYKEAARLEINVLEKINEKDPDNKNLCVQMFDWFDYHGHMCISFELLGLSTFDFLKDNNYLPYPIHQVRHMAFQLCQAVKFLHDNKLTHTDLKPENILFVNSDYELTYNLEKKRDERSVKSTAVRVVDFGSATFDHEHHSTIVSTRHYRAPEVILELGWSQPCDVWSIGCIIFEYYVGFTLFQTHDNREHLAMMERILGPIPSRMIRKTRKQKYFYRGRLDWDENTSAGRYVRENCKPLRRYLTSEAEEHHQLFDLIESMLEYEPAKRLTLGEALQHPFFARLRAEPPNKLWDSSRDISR

Sequence of Dual specificity mitogen-activated protein kinase kinase 2 (P36507 whole entry): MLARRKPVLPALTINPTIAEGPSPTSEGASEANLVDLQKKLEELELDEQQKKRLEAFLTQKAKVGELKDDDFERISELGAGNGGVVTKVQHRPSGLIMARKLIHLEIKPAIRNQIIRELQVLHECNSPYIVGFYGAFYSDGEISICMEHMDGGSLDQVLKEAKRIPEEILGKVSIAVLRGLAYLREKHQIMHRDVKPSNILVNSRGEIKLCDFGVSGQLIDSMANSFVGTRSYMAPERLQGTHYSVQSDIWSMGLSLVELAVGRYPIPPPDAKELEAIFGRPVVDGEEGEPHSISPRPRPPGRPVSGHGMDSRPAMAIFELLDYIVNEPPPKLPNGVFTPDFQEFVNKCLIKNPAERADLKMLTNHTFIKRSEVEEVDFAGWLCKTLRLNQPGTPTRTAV
Sequence of Calcium/calmodulin-dependent protein kinase type 1D (Homo sapiens) (Q8IU85 whole entry, looked up): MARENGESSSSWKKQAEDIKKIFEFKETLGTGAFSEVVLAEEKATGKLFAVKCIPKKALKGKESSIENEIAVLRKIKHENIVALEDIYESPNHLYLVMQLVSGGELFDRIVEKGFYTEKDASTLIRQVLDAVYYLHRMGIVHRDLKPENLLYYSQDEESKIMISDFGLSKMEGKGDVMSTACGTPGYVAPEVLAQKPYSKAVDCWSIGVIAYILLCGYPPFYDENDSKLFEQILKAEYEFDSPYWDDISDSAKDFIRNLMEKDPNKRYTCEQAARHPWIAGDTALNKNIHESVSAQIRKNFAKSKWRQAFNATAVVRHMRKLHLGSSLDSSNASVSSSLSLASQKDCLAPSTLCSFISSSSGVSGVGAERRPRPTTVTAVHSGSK
Sequence of Serine/threonine-protein kinase OSR1 (Homo sapiens) (O95747 2-527 limits assumed): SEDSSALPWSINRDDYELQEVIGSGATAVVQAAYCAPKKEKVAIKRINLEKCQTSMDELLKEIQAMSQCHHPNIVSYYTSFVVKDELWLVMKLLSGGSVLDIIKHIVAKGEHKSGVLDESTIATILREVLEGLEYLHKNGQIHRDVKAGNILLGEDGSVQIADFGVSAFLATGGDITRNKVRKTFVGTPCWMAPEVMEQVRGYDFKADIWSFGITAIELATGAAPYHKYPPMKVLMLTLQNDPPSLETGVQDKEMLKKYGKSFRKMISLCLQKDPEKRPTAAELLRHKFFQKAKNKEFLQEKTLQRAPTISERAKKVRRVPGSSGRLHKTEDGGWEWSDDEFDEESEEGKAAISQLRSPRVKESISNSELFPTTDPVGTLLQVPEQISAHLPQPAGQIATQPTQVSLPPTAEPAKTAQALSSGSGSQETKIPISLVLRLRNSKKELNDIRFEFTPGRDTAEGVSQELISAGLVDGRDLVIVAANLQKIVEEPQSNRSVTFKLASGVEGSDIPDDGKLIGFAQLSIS
Sequence of Serine/threonine-protein kinase RIO2 (Homo sapiens) (Q9BVS4 whole entry, looked up): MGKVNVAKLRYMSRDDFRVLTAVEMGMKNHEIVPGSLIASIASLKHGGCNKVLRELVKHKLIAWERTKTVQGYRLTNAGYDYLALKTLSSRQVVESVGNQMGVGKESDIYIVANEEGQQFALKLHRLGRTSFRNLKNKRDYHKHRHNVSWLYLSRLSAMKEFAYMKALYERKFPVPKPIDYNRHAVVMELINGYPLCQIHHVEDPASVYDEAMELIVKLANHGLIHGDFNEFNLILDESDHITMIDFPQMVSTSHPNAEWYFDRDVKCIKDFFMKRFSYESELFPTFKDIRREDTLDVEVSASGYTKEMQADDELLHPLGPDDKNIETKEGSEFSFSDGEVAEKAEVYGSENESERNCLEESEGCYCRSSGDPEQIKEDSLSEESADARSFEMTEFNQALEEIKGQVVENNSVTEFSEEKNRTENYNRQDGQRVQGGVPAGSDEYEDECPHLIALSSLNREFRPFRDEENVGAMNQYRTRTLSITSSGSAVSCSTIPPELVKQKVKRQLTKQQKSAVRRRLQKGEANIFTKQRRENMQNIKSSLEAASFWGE
Sequence of Cyclin-dependent kinase 16 (Homo sapiens) (Q00536 whole entry): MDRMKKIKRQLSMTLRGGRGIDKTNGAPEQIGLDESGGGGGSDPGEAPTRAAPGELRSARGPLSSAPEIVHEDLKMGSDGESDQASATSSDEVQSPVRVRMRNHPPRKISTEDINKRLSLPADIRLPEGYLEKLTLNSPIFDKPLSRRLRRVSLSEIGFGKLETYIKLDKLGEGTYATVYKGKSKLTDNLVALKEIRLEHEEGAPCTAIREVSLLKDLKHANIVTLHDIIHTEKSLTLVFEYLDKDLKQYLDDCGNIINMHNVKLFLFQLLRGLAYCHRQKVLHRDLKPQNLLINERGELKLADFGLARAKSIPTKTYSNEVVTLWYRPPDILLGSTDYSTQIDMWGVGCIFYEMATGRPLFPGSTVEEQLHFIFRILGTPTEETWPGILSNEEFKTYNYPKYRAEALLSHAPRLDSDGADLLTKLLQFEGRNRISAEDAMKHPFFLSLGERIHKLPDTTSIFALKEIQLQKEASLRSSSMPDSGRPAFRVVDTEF
Sequence of STE20-like serine/threonine-protein kinase (Homo sapiens) (Q9H2G2 whole entry, looked up): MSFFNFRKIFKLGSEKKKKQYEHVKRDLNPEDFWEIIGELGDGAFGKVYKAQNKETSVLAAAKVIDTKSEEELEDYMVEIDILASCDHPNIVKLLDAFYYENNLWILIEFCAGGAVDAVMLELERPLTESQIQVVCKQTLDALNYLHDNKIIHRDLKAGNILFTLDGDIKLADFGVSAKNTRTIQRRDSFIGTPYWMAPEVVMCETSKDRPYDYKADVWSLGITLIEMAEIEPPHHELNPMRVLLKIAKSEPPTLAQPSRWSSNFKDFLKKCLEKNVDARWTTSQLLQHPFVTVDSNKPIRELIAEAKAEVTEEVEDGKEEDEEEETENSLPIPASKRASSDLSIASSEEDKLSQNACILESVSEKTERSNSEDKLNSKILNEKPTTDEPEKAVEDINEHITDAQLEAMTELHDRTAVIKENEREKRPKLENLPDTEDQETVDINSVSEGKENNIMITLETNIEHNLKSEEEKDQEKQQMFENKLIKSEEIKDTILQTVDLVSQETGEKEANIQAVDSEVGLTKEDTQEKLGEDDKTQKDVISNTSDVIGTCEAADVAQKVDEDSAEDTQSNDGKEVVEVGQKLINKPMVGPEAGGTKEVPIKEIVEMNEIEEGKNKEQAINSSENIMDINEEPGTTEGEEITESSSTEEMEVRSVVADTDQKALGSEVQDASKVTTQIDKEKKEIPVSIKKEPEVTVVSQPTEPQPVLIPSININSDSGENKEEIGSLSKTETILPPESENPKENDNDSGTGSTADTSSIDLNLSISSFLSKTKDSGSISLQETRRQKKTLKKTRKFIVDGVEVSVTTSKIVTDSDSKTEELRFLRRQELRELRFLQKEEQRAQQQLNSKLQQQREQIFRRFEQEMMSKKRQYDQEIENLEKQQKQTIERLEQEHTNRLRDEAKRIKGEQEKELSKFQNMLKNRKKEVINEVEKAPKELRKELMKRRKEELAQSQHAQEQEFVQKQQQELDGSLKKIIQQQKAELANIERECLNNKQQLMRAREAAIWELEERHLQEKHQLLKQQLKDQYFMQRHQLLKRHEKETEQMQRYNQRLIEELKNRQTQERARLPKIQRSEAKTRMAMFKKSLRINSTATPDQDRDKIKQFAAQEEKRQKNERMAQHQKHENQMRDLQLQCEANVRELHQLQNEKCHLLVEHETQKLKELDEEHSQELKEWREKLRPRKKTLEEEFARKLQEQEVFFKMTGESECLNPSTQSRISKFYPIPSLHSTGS
Sequence of Casein kinase I isoform gamma-2 (Homo sapiens) (P78368 whole entry, looked up, canonical isoform): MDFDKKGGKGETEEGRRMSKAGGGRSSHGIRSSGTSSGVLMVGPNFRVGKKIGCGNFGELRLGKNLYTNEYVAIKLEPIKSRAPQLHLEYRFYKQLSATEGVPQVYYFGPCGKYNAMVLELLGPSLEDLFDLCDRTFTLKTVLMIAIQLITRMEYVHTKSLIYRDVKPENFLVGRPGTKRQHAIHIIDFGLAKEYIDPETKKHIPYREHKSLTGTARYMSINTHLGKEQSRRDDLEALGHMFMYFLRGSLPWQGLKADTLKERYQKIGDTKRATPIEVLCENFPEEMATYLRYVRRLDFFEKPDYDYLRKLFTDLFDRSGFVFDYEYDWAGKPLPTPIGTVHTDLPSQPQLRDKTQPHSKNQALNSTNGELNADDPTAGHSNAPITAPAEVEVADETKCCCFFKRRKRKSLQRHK

In the case of `Cn1cc(C2=C(c3cn(CCCN)c4ccccc34)C(=O)NC2=O)c2ccccc21`, the thermal shift (ΔTm) in experiment [1] is 0.3 °C; in experiment [2], 1.8 °C; in experiment [3], 0.4 °C; in experiment [4] it was -0.8 °C; in experiment [5] it was 2.6 °C; in experiment [6], 3.5 °C. Besides, the ΔTm is 0.6 °C in experiment [7]; 7.6 °C in experiment [8]; -0.1 °C in experiment [9]; 0.3 °C in experiment [10]; 0.5 °C in experiment [11]; -0.1 °C in experiment [12]. Also, the shift in melting temperature (ΔTm) in [13] was found to be 6.7 °C; in [14], 8.2 °C; in experiment [15], 0.3 °C; in [16], 4.7 °C; in experiment [17], 5.6 °C.

For the molecule `Cn1cc(/C=C2/C(=O)Nc3ccc(S(N)(=O)=O)cc32)c2ccccc21`, the ΔTm in [1] is 2 °C; in [2], 6.2 °C; in [3], 0.2 °C; in experiment [4], -1.2 °C; in experiment [5] it was 0.9 °C; in experiment [6], 3.2 °C. Besides, the ΔTm in experiment [7] amounted to 1.1 °C; in experiment [8] it was 8.4 °C; in [9] it was 3.7 °C; in experiment [10], 0.5 °C; in experiment [11] it was 5 °C; in [12], 0.2 °C. The shift in melting temperature (ΔTm) worked out at 3.4 °C in [13]; 4.7 °C in experiment [14]; 5.5 °C in [15]; 1.9 °C in [16]; 3.6 °C in experiment [17].

In the case of `O=c1ccc2ccc(O)c(O)c2o1` [DAPHNETIN], the ΔTm is 0.1 °C in [1]; 0.3 °C in experiment [2]; 0.4 °C in experiment [3]; -0.4 °C in [4]; 0.6 °C in experiment [5]; 0.1 °C in experiment [6]. Further, the thermal shift (ΔTm) in experiment [7] is -0.3 °C; in experiment [8], 0.1 °C; in experiment [9], 0.1 °C; in experiment [10], 0.1 °C; in [11] it was 0.7 °C; in [12], 0 °C. The ΔTm was 0.8 °C in experiment [13]; 0 °C in [14]; 0.2 °C in experiment [15]; -0.6 °C in experiment [16]; 0.1 °C in [17].

On to `N#C/C(=C\c1ccc(O)c(O)c1)C(=O)NCc1ccccc1`, for which the ΔTm stood at 0.2 °C in experiment [1]; 0.9 °C in [2]; 0.5 °C in [3]; 0.7 °C in [4]; 0.6 °C in [5]; 0.5 °C in experiment [6]. The ΔTm in experiment [7] came out at 0.2 °C; in experiment [8], 2.9 °C; in [9], 0.7 °C; in experiment [10], 0.7 °C; in experiment [11], 1.5 °C; in [12], 0.5 °C. The ΔTm was 3.1 °C in [13]; 1 °C in experiment [14]; 0.4 °C in experiment [15]; -0.6 °C in experiment [16]; 0.7 °C in experiment [17].

With `C[C@@H](N)[C@H]1CC[C@H](C(=O)Nc2ccncc2)CC1`, the shift in melting temperature (ΔTm) in experiment [1] was determined as 0.6 °C; in experiment [2], 0.3 °C; in experiment [3], 0.4 °C; in experiment [4], 0.9 °C; in [5], 0.4 °C; in experiment [6], 1 °C. Besides, the shift in melting temperature (ΔTm) in [7] is -0.4 °C; in experiment [8], 0.2 °C; in experiment [9], -0.4 °C; in experiment [10], 0.6 °C; in [11], 0.3 °C; in [12] it was -0.3 °C. In addition, the ΔTm was 1.3 °C in [13]; 2.1 °C in experiment [14]; -0.1 °C in [15]; -0.7 °C in experiment [16]; 0.2 °C in experiment [17].

Take `O=C(O)c1cc(NCc2cc(O)ccc2O)ccc1O`: the thermal shift (ΔTm) in [1] was -0.1 °C; in [2] it was 0.1 °C; in experiment [3], 0.3 °C; in experiment [4], 0 °C; in experiment [5], -0.2 °C; in experiment [6], 0.2 °C. Moreover, the thermal shift (ΔTm) was 0.2 °C in experiment [7]; -0.5 °C in [8]; 0 °C in [9]; 0.3 °C in experiment [10]; 0 °C in experiment [11]; 0.2 °C in [12]. Besides, the ΔTm in [13] is -0.2 °C; in [14], 0.1 °C; in experiment [15] it was -0.4 °C; in [16], 0.1 °C; in [17] it was -0.1 °C.

As to `C#Cc1cccc(Nc2ncnc3cc(OCCOC)c(OCCOC)cc23)c1`, the ΔTm in experiment [1] is 0.1 °C; in [2], -0.1 °C; in experiment [3], 0.2 °C; in experiment [4], 0.7 °C; in experiment [5], 0 °C; in experiment [6], 0.9 °C. For the same molecule, the shift in melting temperature (ΔTm) in experiment [7] is 0.6 °C; in experiment [8] it was 8.2 °C; in [9] it was 0 °C; in experiment [10] it was -0.1 °C; in experiment [11], 0.3 °C; in experiment [12] it was 0 °C. In addition, the ΔTm is -0.1 °C in experiment [13]; -0.5 °C in [14]; 0 °C in experiment [15]; -0.4 °C in experiment [16]; 0.3 °C in experiment [17].

In the case of `O=C1Nc2cc(Br)ccc2/C1=C1/Nc2ccccc2/C1=N\O`, the shift in melting temperature (ΔTm) in experiment [1] is -0.8 °C; in [2], 1.5 °C; in experiment [3], -1.1 °C; in experiment [4], 1.1 °C; in [5] it was 0.5 °C; in experiment [6] it was -0.8 °C. In addition, the ΔTm in experiment [7] was 3.1 °C; in experiment [8], 4.4 °C; in [9] it was 0.6 °C; in experiment [10], 0.3 °C; in experiment [11], 4.4 °C; in [12], -0.6 °C. In addition, the shift in melting temperature (ΔTm) is -0.1 °C in [13]; 0 °C in [14]; -0.2 °C in experiment [15]; -1.7 °C in experiment [16]; 1.9 °C in [17].

In general, ΔTm refers to the shift of the melting midpoint relative to a reference.

Values taken from ChEMBL document CHEMBL1145498, “A systematic interaction map of validated kinase inhibitors with Ser/Thr kinases” (Proc Natl Acad Sci U S A, 2007).
